Measured values published in ChEMBL document CHEMBL1201862, “PubChem BioAssay data set” (2004).
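Cultured in 96-well plates, cells were exposed to test compound for 48 hours across five concentrations. Here, GI50 denotes the concentration required for 50% inhibition of growth.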 Calls of active or inactive are those of the source. Rule as the data show it: active = GI50 up to about 1.1 µM and inactive = higher.

Key:
Assay in all cases: NCI anticancer screen, dose series, 48 h
786-0 = system: 786-0
A498 = system: A498
A549 = system: A549
ACHN = system: ACHN
BT-549 = system: BT-549
CAKI-1 = system: CAKI-1
CCRF-CEM = system: CCRF-CEM
COLO 205 = system: COLO 205
EKVX = system: EKVX
HCC 2998 = system: HCC 2998
HCT-116 = system: HCT-116
HCT-15 = system: HCT-15
HL-60 = system: HL-60
HOP-62 = system: HOP-62
HOP-92 = system: HOP-92
HT-29 = system: HT-29
Hs-578T = system: Hs-578T
IGROV-1 = system: IGROV-1
K562 = system: K562
KM12 = system: KM12
LOX IMVI = system: LOX IMVI
M14 = system: M14
MCF7 = system: MCF7
MDA-MB-231 = system: MDA-MB-231
MDA-MB-435 = system: MDA-MB-435
MDA-N = system: MDA-N
MOLT-4 = system: MOLT-4
Malme-3M = system: Malme-3M
NCI-H226 = system: NCI-H226
NCI-H460 = system: NCI-H460
NCI-H522 = system: NCI-H522
NCI/ADR-RES = system: NCI/ADR-RES
OVCAR-4 = system: OVCAR-4
OVCAR-5 = system: OVCAR-5
OVCAR-8 = system: OVCAR-8
PC-3 = system: PC-3
RPMI-8226 = system: RPMI-8226
RXF 393 = system: RXF 393
SF-268 = system: SF-268
SF-295 = system: SF-295
SF-539 = system: SF-539
SK-MEL-28 = system: SK-MEL-28
SK-MEL-2 = system: SK-MEL-2
SK-MEL-5 = system: SK-MEL-5
SK-OV-3 = system: SK-OV-3
SN12C = system: SN12C
SNB-19 = system: SNB-19
SNB-75 = system: SNB-75
SW-620 = system: SW-620
TK-10 = system: TK-10
U-251 = system: U-251
UACC-257 = system: UACC-257
UACC-62 = system: UACC-62
DU-145 = system: DU-145
NCI-H23 = system: NCI-H23
OVCAR-3 = system: OVCAR-3
T47D = system: T47D
UO-31 = system: UO-31

## Cc1ccc(-c2c(C#N)c(-c3ccc(N(C)C)cc3)c(C#N)c(=O)n2NS(=O)(=O)c2ccccc2)cc1
786-0
  GI50: 22.9 µM (inactive)
A498
  GI50: 51.4 µM (inactive)
A549
  GI50: 36.5 µM (inactive)
ACHN
  GI50: 42.7 µM (inactive)
BT-549
  GI50: 37.2 µM (inactive)
CAKI-1
  GI50: 31.7 µM (inactive)
CCRF-CEM
  GI50: 29.5 µM (inactive)
COLO 205
  GI50: 40.8 µM (inactive)
EKVX
  GI50: 96.6 µM (inactive)
HCC 2998
  GI50: 18.3 µM (inactive)
HCT-116
  GI50: 30.7 µM (inactive)
HCT-15
  GI50: 27.7 µM
HL-60
  GI50: 44.8 µM (inactive)
HOP-62
  GI50: 46.2 µM (inactive)
HOP-92
  GI50: > 100 µM (inactive)
HT-29
  GI50: 38.5 µM (inactive)
Hs-578T
  GI50: 33.7 µM (inactive)
IGROV-1
  GI50: 63.2 µM (inactive)
K562
  GI50: 44.9 µM (inactive)
KM12
  GI50: 31.3 µM (inactive)
LOX IMVI
  GI50: 28 µM (inactive)
M14
  GI50: 25 µM (inactive)
MCF7
  GI50: 26.1 µM (inactive)
MDA-MB-231
  GI50: > 100 µM (inactive)
MDA-MB-435
  GI50: 43.7 µM (inactive)
MDA-N
  GI50: 45.9 µM (inactive)
MOLT-4
  GI50: 16.4 µM (inactive)
Malme-3M
  GI50: 87.9 µM (inactive)
NCI-H226
  GI50: > 100 µM (inactive)
NCI-H460
  GI50: 18.1 µM (inactive)
NCI-H522
  GI50: 42.3 µM (inactive)
NCI/ADR-RES
  GI50: 39.4 µM (inactive)
OVCAR-4
  GI50: 19.9 µM (inactive)
OVCAR-5
  GI50: > 100 µM (inactive)
OVCAR-8
  GI50: 44.5 µM (inactive)
PC-3
  GI50: 33.4 µM (inactive)
RPMI-8226
  GI50: 8.67 µM (inactive)
RXF 393
  GI50: 22.7 µM (inactive)
SF-268
  GI50: 79.3 µM (inactive)
SF-295
  GI50: 23.1 µM (inactive)
SF-539
  GI50: 21.9 µM (inactive)
SK-MEL-28
  GI50: 45.9 µM (inactive)
SK-MEL-2
  GI50: 37.5 µM (inactive)
SK-MEL-5
  GI50: 17.3 µM (inactive)
SK-OV-3
  GI50: 62.1 µM (inactive)
SN12C
  GI50: 55.7 µM (inactive)
SNB-19
  GI50: 63.7 µM (inactive)
SNB-75
  GI50: 37 µM (inactive)
SW-620
  GI50: 39.2 µM (inactive)
TK-10
  GI50: 92.3 µM (inactive)
U-251
  GI50: 47.9 µM (inactive)
UACC-257
  GI50: > 100 µM (inactive)
UACC-62
  GI50: 30.8 µM (inactive)

## COc1ccccc1/N=C1\SCCN1C(=S)Nc1ccc(S(=O)(=O)/N=C/N(C)C)cc1
786-0
  GI50: 44.2 µM (inactive)
A498
  GI50: > 100 µM (inactive)
A549
  GI50: > 100 µM (inactive)
ACHN
  GI50: 32.4 µM (inactive)
BT-549
  GI50: 21.9 µM (inactive)
CAKI-1
  GI50: 33.7 µM (inactive)
CCRF-CEM
  GI50: 38.3 µM (inactive)
COLO 205
  GI50: 28.6 µM (inactive)
DU-145
  GI50: 29.6 µM (inactive)
EKVX
  GI50: 20.9 µM (inactive)
HCC 2998
  GI50: > 100 µM (inactive)
HCT-116
  GI50: 41.7 µM (inactive)
HCT-15
  GI50: 31.6 µM
HL-60
  GI50: 27.4 µM (inactive)
HOP-62
  GI50: > 100 µM (inactive)
HOP-92
  GI50: 27.9 µM (inactive)
K562
  GI50: 39.6 µM (inactive)
KM12
  GI50: > 100 µM (inactive)
LOX IMVI
  GI50: 29.9 µM (inactive)
M14
  GI50: 51.5 µM (inactive)
MCF7
  GI50: 26.1 µM (inactive)
MDA-MB-231
  GI50: > 100 µM (inactive)
MDA-MB-435
  GI50: 24.9 µM (inactive)
MDA-N
  GI50: 26.5 µM (inactive)
MOLT-4
  GI50: 22.6 µM (inactive)
NCI-H226
  GI50: > 100 µM (inactive)
NCI-H23
  GI50: 27.1 µM (inactive)
NCI-H460
  GI50: > 100 µM (inactive)
NCI/ADR-RES
  GI50: 45 µM (inactive)
OVCAR-3
  GI50: 44 µM (inactive)
OVCAR-4
  GI50: 43.2 µM (inactive)
OVCAR-5
  GI50: 87.5 µM (inactive)
OVCAR-8
  GI50: 35.2 µM (inactive)
PC-3
  GI50: > 100 µM (inactive)
RPMI-8226
  GI50: 21.6 µM (inactive)
RXF 393
  GI50: 16.6 µM (inactive)
SF-268
  GI50: 22.1 µM (inactive)
SF-295
  GI50: > 100 µM (inactive)
SF-539
  GI50: 21.9 µM (inactive)
SK-MEL-28
  GI50: 30.1 µM (inactive)
SK-MEL-5
  GI50: 15.9 µM (inactive)
SK-OV-3
  GI50: > 100 µM (inactive)
SN12C
  GI50: 50.9 µM (inactive)
SNB-19
  GI50: > 100 µM (inactive)
SNB-75
  GI50: 29.6 µM (inactive)
SW-620
  GI50: 44.9 µM (inactive)
T47D
  GI50: 25.8 µM (inactive)
TK-10
  GI50: 36 µM (inactive)
U-251
  GI50: > 100 µM (inactive)
UACC-257
  GI50: 36.1 µM (inactive)
UACC-62
  GI50: 25.7 µM (inactive)
UO-31
  GI50: 38.5 µM (inactive)
